Experimental data reported in patent US12528837B2, “Aryl substituted polymyxin derivatives” (priority 2018, dated 2026).
In brackets after ≈: the same amount, converted by molar mass. Where two headings read alike, the source gives them in different places. Where a SMILES comes first, the peptide text is derived from it. Bridges are numbered along the chain shown (N, C = ends). [ ]: non-standard residue; d: D form. The star is where a group is joined. X2 = NC[C@@H](CC(=O)*)c1cccc(-c2ccccc2)c1; X9 = CC(C)c1cccc([C@H](CN)CC(=O)*)c1; X12 = NC[C@H](CC(=O)*)c1cccc(Br)c1; X13 = Cc1cccc([C@H](CN)CC(=O)*)c1; Dab = NCC[C@H](N)C(=O)O; Abu = CC[C@H](N)C(=O)O; Dap = NC[C@H](N)C(=O)O

Experiments:
A. baumannii NCTC 13424 = assay type: cell-based
Experimental: (§1) The inoculum was prepared by making a direct suspension of isolated colonies (selected from an 18-24 hour Mueller-Hinton agar plate) adjusted to the 0.5 McFarland standard. […] The assays were performed in duplicate. […] The MIC values are quoted in μg/mL.

P. aeruginosa ATCC 27853 = assay type: cell-based; details: cation-adjusted Mueller-Hinton Broth, 18-20 h, 35° C.
Experimental: as §1

[1] = test system: A. baumannii ATCC BAA-747; assay type: cell-based
Experimental: as §1

E. coli ATCC 25922 = assay type: cell-based; details: cation-adjusted Mueller-Hinton Broth, 18-20 h, 35° C.
Experimental: as §1

K. pneumoniae ATCC 13822 = assay type: cell-based
Experimental: as §1

E. coli CA58 = assay type: cell-based
Experimental: (§2) The inoculum was prepared by making a direct suspension of isolated colonies (selected from an 18-24 hour Mueller-Hinton agar plate) adjusted to the 0.5 McFarland standard. […] The assays were performed in duplicate. […] Several of the compounds were subjected to multiple tests, and where this is the case, the MIC presented is the median value obtained. The MIC values are quoted in μg/mL.

K. pneumoniae CA64 = assay type: cell-based
Experimental: as §2

P. aeruginosa CCUG 59347 = assay type: cell-based
Experimental: as §2

[2] = Renal toxicity of Example 24 vs PMB after four doses in mouse; assay type: in vivo, mouse; details: mouse, in vivo, sc
Experimental: Immediately after the fourth dose mice were transferred to metabolic cages and urine collected for 24 h. for determination of urinary biomarkers. After urine collection mice were sacrificed for renal histopathology.
The urine biomarkers were normalized to urinary creatinine.

[3] = Kidney drug level after subcutaneous dose in mouse; assay type: in vivo; details: mouse, in vivo, sc, 17.2 mg/kg
Experimental: Four hours after dosing the animals were euthanised and kidneys removed, trimmed of fat and connective tissue, weighed and immediately snap-frozen. After thawing at room temperature, pairs of kidneys from each animal were placed in 2 mL conical tubes containing pre-weighed ceria-stabilised zirconium oxide beads. […] After 10 min. centrifugation at 13,000 rpm and 6° C., 200 μl of the supernatants were transferred into glass inserts and analysed by LC-MS-MS.

HK-2 cells = experiment: In vitro renal cell toxicity assay (HK-2); assay type: cell-based
Experimental: The in vitro renal cell toxicity assay was performed according to the following protocol. […] Cells were seeded at 7,500 cells per well in 96-well plates and allowed to adhere overnight. […] Water and DMSO levels were kept constant at 5% and 0.5% respectively. The test compounds were incubated with cells for 24 h at 37° C. 5% CO2 in a humidified atmosphere. […] Media only background values were subtracted before the data was analysed using GraphPad Prism. Individual values were normalised to the vehicle control wells for each compound. Compound concentration values were plotted as log values to enable a dose-response curve to be fitted. The bottom of the curve was constrained to zero and IC50 values were determined. IC50 values are expressed relative to that for PMB in the same experiment. Where multiple determinations have been made, median values are presented.

[4] = cation-adjusted Mueller-Hinton Broth, 18-20 h, 35° C.

Question: Which results are given for `Cc1cccc([C@H](CN)CC(=O)N[C@H](C(=O)N[C@@H](CN)C(=O)N[C@H]2CCNC(=O)[C@H]([C@@H](C)O)NC(=O)[C@H](CCN)NC(=O)[C@H](CCN)NC(=O)[C@H](CC(C)C)NC(=O)[C@@H](Cc3ccccc3)NC(=O)[C@H](CCN)NC2=O)[C@@H](C)O)c1` [Example 22, (R)-4-amino-3-(m- toly)butanoyl-Thr- Dap-Cyclo[Dab-Dab- DPhe-Leu-Dab-Dab- Thr]] (X13-T[Dap][Dab][Dab][dF]L[Dab][Dab]T; lactam 3-C)?
Answer: MIC A. baumannii NCTC 13424 (A. baumannii NCTC 13424; [4]): 1 µg/mL (≈ 0.889 µM); MIC P. aeruginosa ATCC 27853 (P. aeruginosa ATCC 27853): 0.25 µg/mL (≈ 0.222 µM); MIC A. baumannii ATCC BAA-747 [1, 4]: 1 µg/mL (≈ 0.889 µM); MIC E. coli ATCC 25922 (E. coli ATCC 25922): 0.25 µg/mL (≈ 0.222 µM); MIC K. pneumoniae ATCC 13822 (K. pneumoniae ATCC 13822; [4]): 0.25 µg/mL (≈ 0.222 µM); MIC E. coli CA58 (E. coli CA58; [4]): 16 µg/mL (≈ 14.2 µM); MIC K. pneumoniae CA64 (K. pneumoniae CA64; [4]): 8 µg/mL (≈ 7.12 µM); MIC P. aeruginosa CCUG 59347 (P. aeruginosa CCUG 59347; [4]): 0.5 µg/mL (≈ 0.445 µM)

Question: Which results are given for `CC[C@@H]1NC(=O)[C@@H](CC(C)C)NC(=O)[C@H](CCN)NC(=O)[C@@H](NC(=O)[C@H](CN)NC(=O)[C@@H](NC(=O)C[C@H](CN)c2cccc(-c3ccccc3)c2)[C@@H](C)O)CCNC(=O)[C@H]([C@@H](C)O)NC(=O)[C@H](CCN)NC(=O)[C@H](CCN)NC1=O` [Example 24, (S)-3-(1,1′-biphenyl- 3-yl)-4-aminobutanoyl-Thr- Dap-Cyclo[Dab-Dab- DLeu-Abu-Dab-Dab- Thr]] (X2-T[Dap][Dab][Dab][dL][Abu][Dab][Dab]T; lactam 3-C)?
Answer: MIC A. baumannii NCTC 13424 (A. baumannii NCTC 13424; NCTC 13424): 0.06 µg/mL (≈ 0.0534 µM); MIC A. baumannii ATCC BAA-747 ([1]; ATCC BAA-747): 0.03 µg/mL (≈ 0.0267 µM); MIC K. pneumoniae ATCC 13822 (K. pneumoniae ATCC 13822; ATCC 13822): 0.25 µg/mL (≈ 0.222 µM); Basophilic Tubules (cortex) (animals affected) ([2]; 25 mg/kg): 0/5; Mitotic Figures increased (animals affected) ([2]; 25 mg/kg): 0/5; Tubular Degeneration/necrosis (histopathology, animals affected) ([2]; 25 mg/kg): 0/5; Urine Albumin ([2]; 25 mg/kg): 4.78; Urine Cystatin C ([2]; 25 mg/kg): 31.04; Urine Kim-1 ([2]; 25 mg/kg): 27.61; Urine NGAL ([2]; 25 mg/kg): 0.00; Urine β-2 microglobulin ([2]; 25 mg/kg): 0.05; Basophilic Tubules (cortex) (animals affected) ([2]; 50 mg/kg): 2/5 (2 min); Mitotic Figures increased (animals affected) ([2]; 50 mg/kg): 2/5 (2 min); Tubular Degeneration/necrosis (histopathology, animals affected) ([2]; 50 mg/kg): 2/5 (2 min); Urine Albumin ([2]; 50 mg/kg): 6.95; Urine Cystatin C ([2]; 50 mg/kg): 33.97; Urine Kim-1 ([2]; 50 mg/kg): 171.59; Urine NGAL ([2]; 50 mg/kg): 0.63; Urine β-2 microglobulin ([2]; 50 mg/kg): 13.22; Basophilic Tubules (cortex) (animals affected) ([2]; 75 mg/kg): 5/5 (2 min/; Mitotic Figures increased (animals affected) ([2]; 75 mg/kg): 5/5 (5 min); Tubular Degeneration/necrosis (histopathology, animals affected) ([2]; 75 mg/kg): 5/5 (1 min/; Urine Albumin ([2]; 75 mg/kg): 10.93; Urine Cystatin C ([2]; 75 mg/kg): 81.44; Urine Kim-1 ([2]; 75 mg/kg): 1,203.41; Urine NGAL ([2]; 75 mg/kg): 3.71; Urine β-2 microglobulin ([2]; 75 mg/kg): 68.51; tissue level at time at 4 h [3]: 203000 ng/g; MIC E. coli CA58 (E. coli CA58; CA58): 4 µg/mL (≈ 3.56 µM); MIC K. pneumoniae CA64 (K. pneumoniae CA64; CA64): 16 µg/mL (≈ 14.2 µM); MIC P. aeruginosa CCUG 59347 (P. aeruginosa CCUG 59347; CCUG 59347): 0.25 µg/mL (≈ 0.222 µM); HK-2 rel to PMB (HK-2 cells): 21.8

Question: For `CC(C)C[C@@H]1NC(=O)[C@@H](CC(C)C)NC(=O)[C@H](CCN)NC(=O)[C@@H](NC(=O)[C@H](CN)NC(=O)[C@@H](NC(=O)C[C@@H](CN)c2cccc(C(C)C)c2)[C@@H](C)O)CCNC(=O)[C@H]([C@@H](C)O)NC(=O)[C@H](CCN)NC(=O)[C@H](CCN)NC1=O` [Example 16, (R)-4-amino-3-(3- isopropylphenyl) butanoyl-Thr-Dap- Cyclo[Dab-Dab-DLeu- Leu-Dab-Dab-Thr]] (X9-T[Dap][Dab][Dab][dL]L[Dab][Dab]T; lactam 3-C), which “MIC A. baumannii NCTC 13424” value (A. baumannii NCTC 13424; [4]) is on record?
Answer: Its value is 0.5 µg/mL (≈ 0.447 µM).

Question: What about the “MIC P. aeruginosa ATCC 27853” value (P. aeruginosa ATCC 27853) of the same molecule?
Answer: Its value is 0.5 µg/mL (≈ 0.447 µM).

Question: And the “MIC A. baumannii ATCC BAA-747” value [1, 4]?
Answer: Its value is 0.5 µg/mL (≈ 0.447 µM).

Question: What about the “MIC E. coli ATCC 25922” value (E. coli ATCC 25922) of the same molecule?
Answer: Its value is 0.5 µg/mL (≈ 0.447 µM).

Question: What about the “MIC K. pneumoniae ATCC 13822” value (K. pneumoniae ATCC 13822; [4]) of the same molecule?
Answer: The value was 0.25 µg/mL (≈ 0.224 µM).

Question: What about the “MIC E. coli CA58” value (E. coli CA58; [4]) of the same molecule?
Answer: The value was 16 µg/mL (≈ 14.3 µM).

Question: And the “MIC K. pneumoniae CA64” value (K. pneumoniae CA64; [4])?
Answer: The value was 8 µg/mL (≈ 7.15 µM).

Question: And the “MIC P. aeruginosa CCUG 59347” value (P. aeruginosa CCUG 59347; [4])?
Answer: The value was 1 µg/mL (≈ 0.894 µM).

Question: For `CC[C@@H]1NC(=O)[C@@H](CC(C)C)NC(=O)[C@H](CCN)NC(=O)[C@@H](NC(=O)[C@H](CN)NC(=O)[C@@H](NC(=O)C[C@@H](CN)c2cccc(Br)c2)[C@@H](C)O)CCNC(=O)[C@H]([C@@H](C)O)NC(=O)[C@H](CCN)NC(=O)[C@H](CCN)NC1=O` [Example 33, (R)-4-amino-3-(3- bromophenyl)butanoyl- Thr-Dap-Cyclo[Dab- Dab-DLeu-Abu-Dab- Dab-Thr],] (X12-T[Dap][Dab][Dab][dL][Abu][Dab][Dab]T; lactam 3-C), which “MIC A. baumannii NCTC 13424” value (A. baumannii NCTC 13424; [4]) is on record?
Answer: The value was 1 µg/mL (≈ 0.887 µM).

Question: And the “MIC P. aeruginosa ATCC 27853” value (P. aeruginosa ATCC 27853)?
Answer: The value was 0.5 µg/mL (≈ 0.444 µM).

Question: What about the “MIC A. baumannii ATCC BAA-747” value [1, 4] of the same molecule?
Answer: Its value is 1 µg/mL (≈ 0.887 µM).

Question: What about the “MIC E. coli ATCC 25922” value (E. coli ATCC 25922) of the same molecule?
Answer: Its value is 0.5 µg/mL (≈ 0.444 µM).

Question: What about the “MIC K. pneumoniae ATCC 13822” value (K. pneumoniae ATCC 13822; [4]) of the same molecule?
Answer: The value was 0.5 µg/mL (≈ 0.444 µM).

Question: And the “MIC E. coli CA58” value (E. coli CA58; [4])?
Answer: The value was 64 µg/mL (≈ 56.8 µM).

Question: And the “MIC K. pneumoniae CA64” value (K. pneumoniae CA64; [4])?
Answer: Its value is 16 µg/mL (≈ 14.2 µM).

Question: What about the “MIC P. aeruginosa CCUG 59347” value (P. aeruginosa CCUG 59347; [4]) of the same molecule?
Answer: Its value is 0.5 µg/mL (≈ 0.444 µM).
